What follows are molecules tested against GluA1o-γ8 (GRIA1o-CACNG8 fusion construct; TARP γ8 dependent AMPA receptor) (Homo sapiens (Human), UniProt P42261+Q8WXS5) (assay: Calcium flux assay (FLIPR), inhibition of glutamate response of GluA1o-γ8 channel). Conditions: HEK293 cells stably expressing GRIA1o-CACNG8 fusion; 15 μM glutamate; pIC50 = negative log of IC50 in molar; read-out: GluR1-γ8 (pIC50) (converted).
Chain of GluA1o-γ8 (GRIA1o-CACNG8 fusion construct; TARP γ8 dependent AMPA receptor) (P42261 other isoform, or with tags, fused parts or gaps): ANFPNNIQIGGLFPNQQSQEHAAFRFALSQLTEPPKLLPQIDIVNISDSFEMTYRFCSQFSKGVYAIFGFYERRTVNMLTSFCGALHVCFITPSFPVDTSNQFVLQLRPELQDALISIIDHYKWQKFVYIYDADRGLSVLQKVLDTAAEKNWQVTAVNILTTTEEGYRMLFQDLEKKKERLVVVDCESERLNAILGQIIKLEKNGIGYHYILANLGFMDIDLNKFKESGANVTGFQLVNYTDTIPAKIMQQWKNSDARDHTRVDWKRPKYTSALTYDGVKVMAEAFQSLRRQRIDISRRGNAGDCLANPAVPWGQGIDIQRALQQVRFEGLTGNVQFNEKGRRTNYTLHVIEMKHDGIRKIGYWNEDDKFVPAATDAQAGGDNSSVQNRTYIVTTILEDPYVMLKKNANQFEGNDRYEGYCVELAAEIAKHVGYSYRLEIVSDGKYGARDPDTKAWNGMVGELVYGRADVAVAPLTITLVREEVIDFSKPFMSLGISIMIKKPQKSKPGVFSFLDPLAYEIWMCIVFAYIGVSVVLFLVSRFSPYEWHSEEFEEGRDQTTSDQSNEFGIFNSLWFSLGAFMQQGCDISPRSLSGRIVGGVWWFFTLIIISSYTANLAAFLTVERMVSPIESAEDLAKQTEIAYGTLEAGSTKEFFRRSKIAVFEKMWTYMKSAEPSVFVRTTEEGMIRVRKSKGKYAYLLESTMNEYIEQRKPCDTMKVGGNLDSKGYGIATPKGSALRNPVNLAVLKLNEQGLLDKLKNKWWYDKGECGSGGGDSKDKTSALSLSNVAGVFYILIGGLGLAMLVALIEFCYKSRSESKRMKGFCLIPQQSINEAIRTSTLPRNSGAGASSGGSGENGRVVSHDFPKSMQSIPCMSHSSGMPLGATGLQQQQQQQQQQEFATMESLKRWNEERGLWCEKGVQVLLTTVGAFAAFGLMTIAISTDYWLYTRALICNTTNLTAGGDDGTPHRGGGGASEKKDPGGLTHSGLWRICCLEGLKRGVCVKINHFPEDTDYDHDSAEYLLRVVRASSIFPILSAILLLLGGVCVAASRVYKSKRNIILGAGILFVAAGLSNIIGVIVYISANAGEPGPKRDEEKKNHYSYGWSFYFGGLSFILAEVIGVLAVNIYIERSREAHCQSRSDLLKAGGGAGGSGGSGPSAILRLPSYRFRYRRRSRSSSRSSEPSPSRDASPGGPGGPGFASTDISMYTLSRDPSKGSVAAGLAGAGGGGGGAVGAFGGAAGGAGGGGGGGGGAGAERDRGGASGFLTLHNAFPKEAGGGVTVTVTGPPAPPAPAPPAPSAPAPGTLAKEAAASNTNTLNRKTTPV
Assay type: cell-based
Source text: This assay was used to test compounds for their ability to inhibit TARP γ8 dependent AMPA receptor activity. The AMPA receptor is a non-selective cation channel activated by glutamate. Ionotropic glutamate receptors normally desensitize too rapidly to allow detectable calcium influx in a FLIPR assay (Strange et al. (2006). “Functional characterisation of homomeric ionotropic glutamate receptors GluR1-GluR6 in a fluorescence-based high throughput screening assay.” Comb Chem High Throughput Screen 9(2): 147-158). But, this desensitization is incomplete, and a substantial steady-state current remains in the sustained presence of glutamate (Cho et al. (2007). “Two families of TARP isoforms that have distinct effects on the kinetic properties of AMPA receptors and synaptic currents.” Neuron 55(6): 890-904).
An in vitro assay was used to determine the potency of test compounds as inhibitors of the glutamate response of the channel formed by GluA1o-γ8. To ensure a 1:1 stoichiometry of GluA10 and γ8 subunits in the expressed channel, a fusion of the cDNAs for GRIA1o and CACNG8 was used. Following Shi et al (2009) “The stoichiometry of AMPA receptors and TARPs varies by neuronal cell type.” Neuron 62(5): […]), the C-terminus of the cDNA for GRI1o was fused to the N-terminus of the cDNA for γ8. The linker sequence was […]. […] A clonal cell line in HEK293 cells stably expressing this construct, with a geneticin selection marker, was generated for use in this assay. Cell expressing the GRIA1o-CACNG8 fusion construct were grown in a monolayer in 96- or 384-well microtiter plates. They were washed with assay buffer (135 mM NaCl, 4 mM KCl, 3 mM CaCl2, 1 mM MgCl2, 5 mM glucose, 10 mM HEPES, pH 7.4, 300 mOs) using a Biotek EL405 plate washer. The cells were then loaded with a calcium-sensitive dye (Calcium-5 or Calcium-6, Molecular Devices) and the test compounds at a range of concentrations. Calcium flux following the addition of 15 μM glutamate was monitored using a Molecular Devices FLIPR Tetra.
The fluorescence in each well was normalized to the fluorescence of negative and positive control wells. […] The responses to glutamate as functions of the test compound concentrations were fitted to a four-parameter logistic function. The fitted parameter corresponding to the midpoint was taken to be the potency of inhibition of the compound.
Work on `O=c1[nH]c2ccc(-c3c(-c4ccc(F)cc4)nc4c(O)nccn34)cc2[nH]1` [Example 249, 5-[2-(4-Fluorophenyl)-8-hydroxy-imidazo[1,2-a]pyrazin-3-yl]-1,3-dihydrobenzimidazol-2-one] yielded an IC50 of 1580 nM. For `O=C1Cc2cc(-c3c(-c4ccc(F)c(F)c4)nc4c(N5CCOCC5)nccn34)ccc2N1` [Example 35, 5-[2-(3,4-Difluorophenyl)-8-morpholino-imidazo[1,2-a]pyrazin-3-yl]indolin-2-one], the IC50 was 0.501 nM. Work on `CC(C)c1nn2c(N3CCOCC3)nccc2c1-c1ccc2[nH]ncc2c1` [Example 238, 4-[3-(1H-Indazol-5-yl)-2-isopropyl-pyrazolo[1,5-c]pyrimidin-7-yl]morpholine] yielded an IC50 of 398 nM. `O=C1Cc2cc(-c3c(-c4ccc(F)cc4)nc4c(N5CC6(COC6)C5)nccn34)ccc2N1` [Example 24, 5-[2-(4-Fluorophenyl)-8-(6-oxa-2-azaspiro[3.3]heptan-2-yl)imidazo[1,2-a]pyrazin-3-yl]indolin-2-one] was tested, and the IC50 was 5.01 nM. In the case of `Oc1ccc(-c2c(Cc3cccc(F)c3)nc3c(N4CCOCC4)nccn23)cc1` [Example 96, 4-[2-[(3-Fluorophenyl)methyl]-8-morpholino-imidazo[1,2-a]pyrazin-3-yl]phenol], the IC50 is reported as 20 nM. `CC(=O)N1CCCN(c2nccn3c(-c4ccc(O)cc4)c(-c4ccc(Cl)cc4)nc23)CC1` [Example 92, 1-[4-[2-(4-Chlorophenyl)-3-(4-hydroxyphenyl)imidazo[1,2-a]pyrazin-8-yl]-1,4-diazepan-1-yl]ethanone] showed an IC50 of 25.1 nM. `O=c1[nH]c2ccc(-c3c(-c4ccc(F)cc4)nc4c(N5CCOCC5)nccn34)cc2o1` [Example 116, 6-(2-(4-Fluorophenyl)-8-morpholinoimidazo[1,2-a]pyrazin-3-yl)benzo[d]oxazol-2(3H)-one] was tested, and the IC50 was 3.16 nM. `CN(c1nccn2c(-c3ccc4c(c3)CC(=O)N4)c(-c3ccc(F)cc3)nc12)C1CC1` [Example 46, 5-[8-[Cyclopropyl(methyl)amino]-2-(4-fluorophenyl)imidazo[1,2-a]pyrazin-3-yl]indolin-2-one] gave an IC50 of 5.01 nM. In the case of `COc1nccn2c(-c3ccc4[nH]c(=O)[nH]c4c3)c(-c3ccc(F)cc3)nc12` [Example 99, 5-[2-(4-Fluorophenyl)-8-methoxy-imidazo[1,2-a]pyrazin-3-yl]-1,3-dihydrobenzimidazol-2-one], the IC50 is reported as 25.1 nM. Work on `CC(=O)N1CCN(c2nccn3c(-c4ccc5[nH]c(=O)[nH]c5c4)c(Cc4ccccc4)nc23)CC1` [Example 19, 5-[8-(4-Acetylpiperazin-1-yl)-2-benzyl-imidazo[1,2-a]pyrazin-3-yl]-1,3-dihydrobenzimidazol-2-one] yielded an IC50 of 3.98 nM. In the case of `Oc1ccc(-c2c(-c3ccc(F)cc3)nc3c(N4CCCC(F)(F)C4)nccn23)cc1` [Example 29, 4-[8-(3,3-Difluoro-1-piperidyl)-2-(4-fluorophenyl)imidazo[1,2-a]pyrazin-3-yl]phenol], the IC50 is reported as 31.6 nM. `O=C1Cc2cc(-c3c(-c4ccc(F)cc4)nc4c(N5CC(O)(C(F)(F)F)C5)nccn34)ccc2N1` [Example 69, 5-[2-(4-Fluorophenyl)-8-[3-hydroxy-3-(trifluoromethyl)azetidin-1-yl]imidazo[1,2-a]pyrazin-3-yl]indolin-2-one] gave an IC50 of 1 nM. `O=C1Cc2cc(-c3c(-c4ccc(F)cc4)nc4c(N5CCC(O)C(F)(F)C5)nccn34)ccc2N1` (stereo not shown) [Example 71, 5-[8-(3,3-Difluoro-4-hydroxy-1-piperidyl)-2-(4-fluorophenyl)imidazo[1,2-a]pyrazin-3-yl]indolin-2-one] showed an IC50 of 0.251 nM. Molecule `O=c1[nH]c2ccc(-c3c(C4CC4)nn4cnc(C(F)(F)F)cc34)cc2s1` [Example 230, 6-[2-Cyclopropyl-5-(trifluoromethyl)pyrazolo[1,5-c]pyrimidin-3-yl]-3H-1,3-benzothiazol-2-one] has an IC50 of 398 nM. In the case of `O=C1Cc2cc(-c3c(-c4ccc(F)cc4)nn4c(N5CCC(F)CC5)nccc34)ccc2N1` [Example 190, 5-[2-(4-Fluorophenyl)-7-(4-fluoro-1-piperidyl)pyrazolo[1,5-c]pyrimidin-3-yl]indolin-2-one], the IC50 is reported as 0.2 nM. In the case of `CC(=O)N1CCN(c2nccn3c(-c4ccc5[nH]ncc5c4)c(Cc4ccccc4)nc23)CC1` [Example 18, 1-[4-[2-Benzyl-3-(1H-indazol-5-yl)imidazo[1,2-a]pyrazin-8-yl]piperazin-1-yl]ethanone], the IC50 is reported as 0.794 nM. Molecule `Fc1ccc(-c2nc3c(N4CCOCC4)nccn3c2-c2ccc3[nH]cnc3c2)cc1` [Example 31, 4-[3-(1H-Benzimidazol-5-yl)-2-(4-fluorophenyl)imidazo[1,2-a]pyrazin-8-yl]morpholine] has an IC50 of 631 nM. `O=C1Cc2cc(-c3c(-c4ccc(F)cc4)nc4c(N5CCC(O)C5)nccn34)ccc2N1` (stereo not shown) [Example 41, 5-[2-(4-Fluorophenyl)-8-(3-hydroxypyrrolidin-1-yl)imidazo[1,2-a]pyrazin-3-yl]indolin-2-one] showed an IC50 of 0.631 nM. For `CC(=O)NC1CCN(c2nccn3c(-c4ccc(O)cc4)c(-c4ccc(Cl)cc4)nc23)CC1` [Example 93, N-[1-[2-(4-Chlorophenyl)-3-(4-hydroxyphenyl)imidazo[1,2-a]pyrazin-8-yl]-4-piperidyl]acetamide], the IC50 was 31.6 nM. Molecule `CC(C)c1nn2cnc(C(F)(F)F)cc2c1-c1ccc2c(c1)CC(=O)N2` [Example 227, 5-[2-Isopropyl-5-(trifluoromethyl)pyrazolo[1,5-c]pyrimidin-3-yl]indolin-2-one] has an IC50 of 1580 nM. With `CN(C)c1nccn2c(-c3ccc4[nH]c(=O)[nH]c4c3)c(-c3ccc(F)cc3)nc12` [Example 101, 5-[8-(Dimethylamino)-2-(4-fluorophenyl)imidazo[1,2-a]pyrazin-3-yl]-1,3-dihydrobenzimidazol-2-one] the IC50 was 0.501 nM. `N#Cc1ccc(-c2nc3c(N4CCOCC4)nccn3c2-c2ccc3c(c2)CC(=O)N3)cc1` [Example 102, 4-[8-Morpholino-3-(2-oxoindolin-5-yl)imidazo[1,2-a]pyrazin-2-yl]benzonitrile] was tested, and the IC50 was 2 nM. For `O=C1Cc2cc(-c3c(-c4ccc(F)cc4)nc4c(N5CCO[C@H](C(F)(F)F)C5)nccn34)ccc2N1` (single isomer, unassigned) [Example 49, (S*)-5-[2-(4-Fluorophenyl)-8-[2-(trifluoromethyl)morpholin-4-yl]imidazo[1,2-a]pyrazin-3-yl]indolin-2-one], the IC50 was 7.94 nM. Work on `O=C1Cc2cc(-c3c(C(=O)c4ccccc4)nc4c(N5CCS(=O)(=O)CC5)nccn34)ccc2N1` [Example 157, 5-[2-Benzoyl-8-(1,1-dioxo-1,4-thiazinan-4-yl)imidazo[1,2-a]pyrazin-3-yl]indolin-2-one] yielded an IC50 of 2.51 nM. `CC(=O)N1CCN(c2nccn3c(-c4ccc5[nH]ncc5c4)c(-c4ccc(C#N)cc4)nc23)CC1` [Example 103, 4-[8-(4-Acetylpiperazin-1-yl)-3-(1H-indazol-5-yl)imidazo[1,2-a]pyrazin-2-yl]benzonitrile] showed an IC50 of 0.794 nM. With `CC(C)Oc1nccc2c(-c3ccc4c(c3)CC(=O)N4)c(-c3ccccc3)nn12` [Example 194, 5-(7-Isopropoxy-2-phenyl-pyrazolo[1,5-c]pyrimidin-3-yl)indolin-2-one] the IC50 was 31.6 nM. For `O=C1Cc2cc(-c3c(-c4ccc(F)cc4)nc4c(N5CC(Cl)C5)nccn34)ccc2N1` [Example 61, 5-[8-(3-Chloroazetidin-1-yl)-2-(4-fluorophenyl)imidazo[1,2-a]pyrazin-3-yl]indolin-2-one], the IC50 was 1.58 nM. With `O=c1[nH]c2ccc(-c3c(-c4ccccc4)nn4cnc(C(F)(F)F)cc34)cc2s1` [Example 224, 6-[2-phenyl-5-(trifluoromethyl)pyrazolo[1,5-c]pyrimidin-3-yl]-3H-1,3-benzothiazol-2-one] the IC50 was 20 nM. `O=C1Cc2cc(-c3c(-c4ccccc4)nc4c(N5CCC(CCF)CC5)nccn34)ccc2N1` [Example 77, 5-[8-[4-(2-Fluoroethyl)-1-piperidyl]-2-phenyl-imidazo[1,2-a]pyrazin-3-yl]indolin-2-one] showed an IC50 of 0.398 nM. With `CCCNC(=O)c1nc2c(N3CCOCC3)nccn2c1-c1ccc(O)cc1` [Example 148, 3-(4-Hydroxyphenyl)-8-morpholino-N-propyl-imidazo[1,2-a]pyrazine-2-carboxamide] the IC50 was 631 nM. Molecule `CC(=O)N[C@H]1CCN(c2nccn3c(-c4ccc5[nH]c(=O)[nH]c5c4)c(-c4ccc(F)cc4)nc23)C1` [Example 98, N-[(3S)-1-[2-(4-Fluorophenyl)-3-(2-oxo-1,3-dihydrobenzimidazol-5-yl)imidazo[1,2-a]pyrazin-8-yl]pyrrolidin-3-yl]acetamide] has an IC50 of 2.51 nM.
